Where two headings read alike, the source gives them in different places.

One experiment has as its system serum cholesterol. The experiment can be described thus: Blood lipid lowering in 8 week-old male rats having normal serum lipid content: serum cholesterol. Type of experiment: in vivo. The note with it: Rattus norvegicus, po, 84 h, 3.5 days, vs non-treated control, read-out: % decrease of serum cholesterol; for inhibition in vivo at 20 mg/kg/day: 20 mg/kg/day oral; for inhibition in vivo at 100 mg/kg/day: 100 mg/kg/day oral; for inhibition in vivo at 10 mg/kg/day: 10 mg/kg/day oral. Here is the method:
(§1) 1. Blood lipid lowering activities in 8 week-old male rats having normal serum lipid content.
(§2) The values shown in Table 1 indicate the concentration changes of serum cholesterol and serum triglycride after the treatment with the shown various doses/day for 3.5 days. The mentioned compounds were orally administered to rat's groups consisting of 10 animals through a stomach tube twice a day. Blood was usually withdrawn 4 hours after the last administration. Serum cholesterol concentration was determined by the method of Levine and Zak, and triglyceride by the method of Kassler and Laderer by means of autoanalyzer. In all examples shown in Table 1, % decrease of treated groups are then to the non-treated reference group (control group), where the value of control group is represented as 100%.
(§3) The values in Table 5 indicate the concentration changes of serum cholesterol and the triglyceride after the treatment with the shown various doses per day for 3.5 days. These compounds were orally administered to rat groups consisting of 10 animals through a stomach tube twice a day. Blood was usually withdrawn 4 hours after the last administration. Serum cholesterol concentration was determined by the method of Levine and Zak, and serum triglyceride by the method of Kessler and Lederer by means of autoanalyzer. In all examples shown in Table 1, % decrease of the treated groups are to the non-treated control group where the value of control group is represented as 100%. […] The following examples are given to illustrate the representative embodiment of this invention, but this invention is not limited to these examples.

A further experiment has as its system serum triglyceride. The experiment can be described thus: Blood lipid lowering in 8 week-old male rats having normal serum lipid content: serum triglyceride. The note with it: 3.5 days, vs non-treated control; for inhibition in vivo at 20 mg/kg/day / inhibition in vivo at 100 mg/kg/day / inhibition in vivo at 10 mg/kg/day: Rattus norvegicus, po, 84 h, read-out: % decrease of serum triglyceride; for inhibition in vivo at 10 mg/kg/day: 10 mg/kg/day oral. Type of experiment: in vivo, rat. The protocol: as §1, §2, §3

Another experiment relates to blood cholesterol. The experiment can be described thus: Blood cholesterol lowering in thiouracil induced hypercholesterolemia of thiouracil loaded 9 week-old male rats. Type of experiment: in vivo, rat. The note with it: 4 days, vs thiouracil loaded control. Here is the method:
3. Blood cholesterol lowering activities in the thiouracil induced hypercholesterolemia of thiouracil loaded 9 week-old male rats.
The compounds illustrated in Table 3 were orally administered for 4 days from the 4th day to rats given 0.1% thiouracil solution for 3 days as the pretreatment. Fasting for 18 hours after the last administration, blood was withdrawn. In all examples shown in Table 3, % inhibition of treated groups are to the thiouracil loaded control group, in which the changed value of cholesterol before and after the thiouracil load is represented as 100%.

In another experiment the test system is blood triglyceride. The experiment can be described thus: Blood triglyceride lowering in carbohydrate (fructose) induced hypertriglyceridemia of fructose loaded 9 week-old male rats. Type of experiment: in vivo, rat. The note with it: 3 days, vs fructose loaded control. Here is the method: 2. Blood triglyceride lowering activities in the carbohydrate induced hypertriglyceridemia of fructose loaded 9 week-old rats.
Compounds shown in Table 2 were orally administered to the rat groups consisting of 10 animals for 3 days. Drinking of 10% fructose solution continued for 48 hours prior to sacrifice.
Fasting for 18 hours after the last administration, blood was withdrawn. In all examples shown in Table 2, % inhibitions of the treated groups are to the fructose loaded control group. The changed value of triglyoride content before and after the fructose load in the control group is represented as 100%.

In the case of `COC(=O)CN(CC(COc1ccc(Cl)cc1)OC(C)=O)c1ccccc1` (stereo not shown) [Compound 50, 2-acetoxy-1-(p-chlorophenoxy)-3-(N-carbomethoxymethyl-N-phenylamino) propane], the inhibition in vivo at 20 mg/kg/day is 21.5% with serum cholesterol (Table 5) and 65.4% in the experiment with serum triglyceride (Table 5, 20 mg/kg/day oral). For the same molecule, the inhibition in vivo at 100 mg/kg/day turned out to be 30.3% in the experiment with serum cholesterol (Table 5) and 66% in the experiment with serum triglyceride (Table 5, 100 mg/kg/day oral).

`NC(=O)CN(CC(O)COc1ccc(Cl)cc1)c1ccccc1` (stereo not shown) [Compound 32]: the inhibition in vivo at 100 mg/kg/day in the experiment with serum cholesterol (Table 1) turned out to be 29.6%; in the experiment on serum triglyceride (Table 1, 100 mg/kg/day oral) it was 56.6%.

For the molecule `N[C@@H](Cc1cc(I)c(Oc2cc(I)c(O)c(I)c2)c(I)c1)C(=O)O` [L-thyroxine, reference compound], in the experiment with blood cholesterol (3 mg/kg/day oral), the “inhibition ratio (hypocholesterolemic effect)” value was determined as 54.8%.

For the molecule `O=C(CN(CC(O)COc1ccc(Cl)cc1)c1ccccc1)NCc1ccccc1` (stereo not shown) [Compound 41], the inhibition in vivo at 100 mg/kg/day in the experiment with serum cholesterol (Table 1) was determined as 12.3%; with serum triglyceride (Table 1, 100 mg/kg/day oral) it was 53.2%.

Take `CCOC(=O)CN(CC(O)COc1ccc(Cl)cc1)c1ccccc1` (stereo not shown) [Compound 5]: the “inhibition ratio (hypocholesterolemic effect)” value in the experiment with blood cholesterol (10 mg/kg/day oral) turned out to be 49.9%; in the experiment on blood cholesterol (30 mg/kg/day oral), 69.2%; with blood cholesterol (100 mg/kg/day oral), 100.7%.

On to `CCCCOC(=O)CN(CC(O)COc1ccc(Cl)cc1)c1ccccc1` (stereo not shown) [Compound 10], for which the “inhibition ratio (hypocholesterolemic effect)” value in the experiment with blood cholesterol (10 mg/kg/day oral) is recorded as 52.6%; with blood cholesterol (30 mg/kg/day oral), 87.4%; in the experiment on blood cholesterol (100 mg/kg/day oral), 94.9%. The “inhibition ratio (hypotriglyceridemic effect)” value in the experiment with blood triglyceride (10 mg/kg/day oral) turned out to be 48.5%; with blood triglyceride (30 mg/kg/day oral), 61.5%; with blood triglyceride (100 mg/kg/day oral), 63.3%.

As for `CCN(CC)C(=O)CN(CC(O)COc1ccc(Cl)cc1)c1ccccc1` (stereo not shown) [Compound 35], the inhibition in vivo at 100 mg/kg/day in the experiment on serum cholesterol (Table 1) is 19.8%; with serum triglyceride (Table 1, 100 mg/kg/day oral), 52.7%.

In the case of `CCOC(=O)C(C)(C)Oc1ccc(Cl)cc1` [clofibrate, reference compound], the “inhibition ratio (hypotriglyceridemic effect)” value in the experiment on blood triglyceride (10 mg/kg/day oral) is -16.6%; in the experiment on blood triglyceride (30 mg/kg/day oral), -2.3%; in the experiment with blood triglyceride (100 mg/kg/day oral) it was 23.2%. Further, the inhibition in vivo at 10 mg/kg/day amounted to 5.8% with serum cholesterol (Table 1) and 6.2% with serum triglyceride (Table 1). The inhibition in vivo at 20 mg/kg/day in the experiment with serum cholesterol (Table 1) was determined as 12.6%; with serum cholesterol (Table 5), 12.6%; in the experiment on serum triglyceride (Table 1, 20 mg/kg/day oral), 36.3%; in the experiment on serum triglyceride (Table 5, 20 mg/kg/day oral), 36.3%. For the same molecule, the inhibition in vivo at 100 mg/kg/day in the experiment on serum cholesterol (Table 1) came to 37%; with serum cholesterol (Table 5), 37%; in the experiment on serum triglyceride (Table 1, 100 mg/kg/day oral) it was 51.7%; with serum triglyceride (Table 5, 100 mg/kg/day oral), 51.7%.

Consider `CCOC(=O)CN(CC(COc1ccc(Cl)cc1)OC(=O)c1cccnc1)c1ccccc1` (stereo not shown) [Compound 57], for which the inhibition in vivo at 20 mg/kg/day in the experiment on serum cholesterol (Table 5) was determined as 12.4%; with serum triglyceride (Table 5, 20 mg/kg/day oral), 54.5%. Moreover, the inhibition in vivo at 100 mg/kg/day in the experiment on serum cholesterol (Table 5) worked out at 14.9%; in the experiment with serum triglyceride (Table 5, 100 mg/kg/day oral), 59.3%.

As to `COC(=O)CN(CC(O)COc1ccc(C(C)(C)C)cc1)c1ccccc1` (stereo not shown) [Compound 18], the inhibition in vivo at 20 mg/kg/day in the experiment with serum cholesterol (Table 1) stood at 12.4%; in the experiment with serum triglyceride (Table 1, 20 mg/kg/day oral), 54.5%. Further, the inhibition in vivo at 100 mg/kg/day in the experiment on serum cholesterol (Table 1) worked out at 14.9%; in the experiment with serum triglyceride (Table 1, 100 mg/kg/day oral) it was 59.3%.

`O=C(O)CN(CC(O)COc1ccc(Cl)cc1)c1ccccc1` (stereo not shown) [Compound 2]: in the experiment on serum cholesterol (Table 1), the inhibition in vivo at 10 mg/kg/day was 15.5%, the inhibition in vivo at 20 mg/kg/day came to 28.8% and the inhibition in vivo at 100 mg/kg/day is 33.5%. Besides, the inhibition in vivo at 10 mg/kg/day in the experiment with serum triglyceride (Table 1) came out at 53.6%. For the same molecule, the “% decrease of serum triglyceride” value in the experiment on serum triglyceride (Table 1, 20 mg/kg/day oral, 20 mg/kg/day) worked out at 73.2%. In addition, the “% decrease of serum triglyceride” value in the experiment on serum triglyceride (Table 1, 100 mg/kg/day oral, 100 mg/kg/day) worked out at 72.0%.

On to `COC(=O)CN(CC(O)COc1ccc(Cl)cc1)c1ccccc1` (stereo not shown) [Compound 4], for which the “inhibition ratio (hypocholesterolemic effect)” value in the experiment on blood cholesterol (10 mg/kg/day oral) came to 51.9%; in the experiment on blood cholesterol (30 mg/kg/day oral), 57.9%; in the experiment on blood cholesterol (100 mg/kg/day oral), 85.5%. Besides, the “inhibition ratio (hypotriglyceridemic effect)” value in the experiment on blood triglyceride (10 mg/kg/day oral) stood at 46.5%; in the experiment with blood triglyceride (30 mg/kg/day oral) it was 69.9%; in the experiment with blood triglyceride (100 mg/kg/day oral), 93.0%. For the same molecule, the inhibition in vivo at 10 mg/kg/day in the experiment on serum cholesterol (Table 1) stood at 22.9%; with serum triglyceride (Table 1) it was 36.5%. The inhibition in vivo at 20 mg/kg/day is 23.4% in the experiment on serum cholesterol (Table 1) and 54.4% in the experiment on serum triglyceride (Table 1, 20 mg/kg/day oral). Also, the inhibition in vivo at 100 mg/kg/day in the experiment on serum cholesterol (Table 1) stood at 39.1%; in the experiment with serum triglyceride (Table 1, 100 mg/kg/day oral), 59%.

On to `CCCOC(=O)CN(CC(O)COc1ccc(Cl)cc1)c1ccccc1` (stereo not shown) [Compound 6], for which the entries for the “inhibition ratio (hypocholesterolemic effect)” value with blood cholesterol (10 mg/kg/day oral), in the experiment on blood cholesterol (30 mg/kg/day oral) and in the experiment on blood cholesterol (100 mg/kg/day oral) were 58.4%, 70.1% and 94.9%, respectively. Moreover, the entries for the “inhibition ratio (hypotriglyceridemic effect)” value in the experiment with blood triglyceride (10 mg/kg/day oral), in the experiment on blood triglyceride (30 mg/kg/day oral) and with blood triglyceride (100 mg/kg/day oral) were 55.9%, 67.6% and 85.7%, respectively. The inhibition in vivo at 20 mg/kg/day with serum cholesterol (Table 1) is 34.7%; in the experiment on serum triglyceride (Table 1, 20 mg/kg/day oral), 49.6%. In addition, the inhibition in vivo at 100 mg/kg/day with serum cholesterol (Table 1) turned out to be 41.2%; in the experiment on serum triglyceride (Table 1, 100 mg/kg/day oral), 72.4%.

In the case of `COC(=O)CN(CC(O)COc1ccccc1Cl)c1ccccc1` (stereo not shown) [Compound 11], the inhibition in vivo at 20 mg/kg/day with serum cholesterol (Table 1) came out at 21.5%; in the experiment with serum triglyceride (Table 1, 20 mg/kg/day oral), 65.4%. Moreover, the inhibition in vivo at 100 mg/kg/day with serum cholesterol (Table 1) came out at 30.3%; in the experiment on serum triglyceride (Table 1, 100 mg/kg/day oral) it was 66%.
